Assay results published in US20230151046A1, “5-POSITION MODIFIED PYRIMIDINES” (Nuclera Nucleics Ltd., priority 2020, published 2023).

How the values were obtained:
[1] = Stability of 5-position modified 2′-deoxycytidine nucleosides to nitrite solution (nitrite-mediated deamination), LC-MS time course; assay type: physicochemical
Description: A series of 5-position modified nucleosides were tested. Each was incubated at room temperature in 700 mM NaNO2, 1 M acetate buffer pH 5.5 and the stability assayed by LC-MS over a time course. […] Electron withdrawing substituents such as the fluoro or alkynyl substituents increase stability. Electron donating substituents such as methyl and hydroxymethyl decrease stability.
LC-MS was used to monitor nucleosides throughout a time course of incubation in 700 mM sodium nitrite at pH 5.5. Integration of UV chromatograms was performed, and the percentage of starting nucleoside plotted.
In addition to monitoring the persistence of the starting material UV peak, the deamination products can be monitored. Deamination products were identified by their mass signals and appearance under nitrite incubation (FIG. 5).

[2] = Stability test of 2′-deoxycytidine and 2′-deoxy-5-fluorocytidine to methoxylamine (1× ORS), LC/MS; assay type: physicochemical; conditions: 1× ORS (methoxylamine, pH 5.5 acetate), room temperature (FIG. 9)
Description: Stability Test of 2′-Deoxycytidine and 2′-Deoxy-5-Fluorocytidine to methoxylamine Oxime removal solution buffer (2× ORS) was prepared from methyoxylamine hydrochloride (60 mg, 0.71 mmol), water (200 μL), pH 5.5 sodium acetate (200 μL) and 10 M sodium hydroxide (53.4 μL) and additional water (1.4 mL). A previously frozen sample of this buffer was further diluted with water by a factor of two to yield 1× ORS. Samples of 2′-deoxycytidine (˜0.5 mg) and 2′-deoxy-5-fluorocytidine (˜0.5 mg) were dissolved in 1 mL aliquots of the buffer. The samples were analysed by LC/MS immediately after making up the samples and at intervals while stored together at room temperature. Appearance of the reaction products 2′-deoxy-4(N)-methoxy cytidine (1) and 2′-deoxy-4(N)-methoxy-5-fluorocytidine (2) and a corresponding loss of starting material was observed. The corresponding loss of starting material relative to the reaction products is plotted on the graph below.
HPLC Method for LC/MS Analysis

**Q.** What does the source list for Nc1nc(=O)n([C@H]2C[C@H](O)[C@@H](CO)O2)cc1F [5-fluoro-2′-deoxycytidine]?
**A.** rate of nitrite-mediated deamination, fold lower than the canonical deoxycytidine analogue ([1]; 700 mM pH 5.5 nitrite, room temperature (FIG. 1)): 4 fold; stability to methoxylamine treatment relative to canonical dC [2]: ~10 ×

**Q.** Which “rate of nitrite-mediated deamination, fold greater than the canonical deoxycytidine analogue” value ([1]; 700 mM pH 5.5 nitrite, room temperature (FIG. 2)) does the source give for Cc1cn([C@H]2C[C@H](O)[C@@H](CO)O2)c(=O)nc1N [5-methyl-2′deoxycytidine, reference compound] here?
**A.** 2 fold

**Q.** With CC#Cc1cn([C@H]2C[C@H](O)[C@@H](CO)O2)c(=O)nc1N [5-propynyl, 5-propynyl-2′-deoxycytidine] as the compound, how does the “stability to nitrite solution (in words)” value ([1]; 700 mM NaNO2, 1 M acetate buffer pH 5.5, room temperature, relative to parent deoxycytidine) read?
**A.** increased stability
